# Columns and labels:
# [1] = GSH-triggered reduction, disassembly of Pt^IVNPs and CDDP release in solution (HPLC, DLS, TEM, ICP-OES); parameters: amount of compound in the P-CyPt solution (HPLC, Fig. 2h) / mean size by TEM (Fig. 2i) / mean size by DLS (Fig. 2i): unit not given here; conditions: for amount of compound in the P-CyPt solution (HPLC, Fig. 2h) / Pt release (ICP-OES, Fig. 2h) / mean size by DLS (Fig. 2i) / mean size by TEM (Fig. 2i): P-CyPt 10 μM
# Experimental: (§1) To evaluate the ALP-triggered dephosphorylation and in situ self-assembly process, a solution of P-CyPt (10 μM) in Tris buffer (1 mL) was incubated with ALP (100 U/L) at 37 °C. HPLC, DLS, and TEM analyses were performed at 0, 5, 10, 15, 20, and 30 min. To evaluate the GSH-triggered reduction and disassembly process, P-CyPt (10 μM) in Tris buffer (1 mL) was first incubated with ALP (100 U/L) at 37 °C for 30 min to allow the formation of Pt^IVNPs. The solution was then treated with 10 mM GSH at 37 °C, which was monitored by HPLC, DLS, and TEM at 10, 20, 30, 40, 50, and 60 min.
# (a) 5 mM GSH 10 mM GSH(b ) (c)
# 60 min 60 min CyPt Cy- CO O H
# Time (min) Time (min) Time (min)
# Supplementary Figure 9. HPLC traces of the time-dependent conversion of PtIVNPs (CyPt) into Cy-COOH under incubation with 5 mM (a) or 10 mM GSH (b) in Tris buffer. (c) The conversion curves of PtIVNPs (CyPt) into Cy-COOH under incubation with 5 mM (red) or 10 mM GSH (black) in Tris buffer. P-CyPt (10 μM) was incubated with ALP (100 U/L, 37 °C) in Tris buffer for 30 min to allow complete dephosphorylation and in situ self-assembly into PtIVNPs. Then, GSH at a concentration of 5 mM or 10 mM was added and incubated for another 0, 10, 20, 30, 40, 50, and 60 min. The amounts of CyPt and Cy-COOH at each time point were quantified by HPLC.
# Date are mean ± s.d. (n = 3 independent experiments). […]
# Release of CDDP from PtIVNPs during disassembly process. P-CyPt (10 μM) in 5 mL Tris buffer was incubated with ALP (100 U/L) at 37 °C for 30 min to form PtIVNPs, followed by addition with 10 mM GSH at 37 °C. After 10, 20, 30, 40, 50 and 60 min, 50 mM N-ethylmaleimide was added into the solution to scavenge GSH. The reaction solution was centrifuged at 13,000 × g and the supernatant was collected. The supernatants were digested with concentrated HNO3 (65~70%) and HCl (36~38%) at 90 °C for 24 h. The solution was diluted to 5 mL 2% HNO3 and 5% HCl solution, and the concentration of Pt element was measured by ICP-OES, which was further applied to calculate the amount of CDDP (denoted as NPt) released in the solution. The percentage of Pt release at each time point was calculated according to the formula:
# Pt release % = NPt/N0 × 100% (9)
# Where N0 represents the total amount of Pt in the in situ formed PtIVNPs, and NPt represents the amount of Pt released from PtIVNPs following incubation with GSH.
# Characterization of enzyme kinetics of P-CyPt towards ALP. Briefly, varying concentrations of P-CyPt (0.5, 1.0, 2.0, 3.0, 4.0, and 5.0 μM) in 100 μL Tris buffer were placed in a 96-well black plate. The reactions were initiated upon addition of 100 μL ALP (30 U/L) to each solution. The resulting fluorescence intensities in each well in the first five minutes were recorded on a Spark™ 10M Multimode Microplate Reader (λex/em = 680/710 nm). The amount of CyPt at each time point was determined by a standard curve under the same conditions. Kinetics values, including Km and Vmax, were determined according to the Lineweaver-Burk plot.
# Determination of the sensitivity of P-CyPt towards ALP. To evaluate the sensitivity of P-CyPt towards ALP, P-CyPt (10 μM) was incubated with varying concentrations of […]
# 30 min, and the fluorescence spectra were then recorded on a HORIBA Jobin Yvon Fluoromax-4 fluorometer, with an excitation at 680 nm. The resulting fluorescence intensities at 710 nm were plotted to the con centrations of ALP, and a linear regression fitted from 0 -20 U/L ALP was obtained, affording the slope k. The detection limit was calculated from 3σ/k, where σ represents the standard deviation of 11 blank […]
# Determination of the specificity towards ALP. The specificity towards ALP in vitro was evaluated based on fluorescence, respectively. P-CyPt (10 μM) in Tris buffer was incubated with 10 nmol/L of MMP-2, 100 U/L of γ-glutamyl transferase (GGT), 100 U/L Cathepsin B (CTB), 0.2 μg/mL of Caspase-3/7, 2.5 mg/mL of Trypsin, 100 U/L of ALP or 100 U/L ALP pretreated with its inhibitors, Na 3VO4 (100 μM) for 10 min. The […]
# ALP = molecular target: T1, ALP (Bos taurus, UniProt P19111); assay: ALP-triggered dephosphorylation and in situ self-assembly in solution (HPLC, DLS, TEM); assay type: biochemical; parameters: amount of compound in the P-CyPt solution (HPLC, Fig. 2h) / mean size by TEM (Fig. 2i) / mean size by DLS (Fig. 2i): unit not given here; conditions: for amount of compound in the P-CyPt solution (HPLC, Fig. 2h) / Pt release (ICP-OES, Fig. 2h) / mean size by DLS (Fig. 2i) / mean size by TEM (Fig. 2i): P-CyPt 10 μM, ALP 100 U/L 37 °C
# T1 construct: Alkaline phosphatase from bovine; purchased Sigma-Aldrich; host or cells: bovine intestinal mucosa (tissue-derived)
# Experimental: as §1
# [2] = test system: orthotopic HepG2/Luc liver tumors; assay: Chemotherapy of orthotopic liver tumors (BL imaging, ex vivo BL and FL imaging); assay type: in vivo, mice;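 also: bioluminescence quantified by ROI over liver region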
# [3] = ALP 30 min then GSH 10 mM 10 min (time 40)
# [4] = ALP 30 min then GSH 10 mM 20 min (time 50)
# [5] = ALP 30 min then GSH 10 mM 30 min (time 60)
# [6] = ALP 30 min then GSH 10 mM 40 min (time 70)
# [7] = ALP 30 min then GSH 10 mM 50 min (time 80)
# [8] = ALP 30 min then GSH 10 mM 60 min (time 90)
# [9] = 2.25 mg kg^−1 Pt i.v. day 0, 3, 6, 9, 12, day 3
# T1 sequence (P19111 20-506 limits assumed): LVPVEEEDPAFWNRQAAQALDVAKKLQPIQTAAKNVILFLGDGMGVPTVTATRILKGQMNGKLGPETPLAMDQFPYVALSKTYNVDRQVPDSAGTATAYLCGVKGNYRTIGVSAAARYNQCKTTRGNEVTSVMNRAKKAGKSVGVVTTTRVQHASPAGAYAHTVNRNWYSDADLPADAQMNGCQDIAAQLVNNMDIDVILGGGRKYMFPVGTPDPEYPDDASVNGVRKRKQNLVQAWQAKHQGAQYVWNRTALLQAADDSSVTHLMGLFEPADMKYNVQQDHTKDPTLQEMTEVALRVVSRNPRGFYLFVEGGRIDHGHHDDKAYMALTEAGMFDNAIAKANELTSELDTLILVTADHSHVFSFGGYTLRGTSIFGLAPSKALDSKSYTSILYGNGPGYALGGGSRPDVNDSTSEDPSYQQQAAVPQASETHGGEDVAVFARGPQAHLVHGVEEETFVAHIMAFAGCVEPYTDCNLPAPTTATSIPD
compound,measurement,setting,value
CC1(C)C(/C=C/C2=C3Oc4cc(O)c(Cl)cc4C=C3CCC2)=[N+](CCCNC(=O)[C@@H](Cc2ccccc2)NC(=O)[C@@H](Cc2ccccc2)NC(=O)CCC(=O)[O][Pt]([NH2])([NH2])([OH])([Cl])[Cl])c2ccccc21 [CyPt],reduction of CyPt in Pt^IVNPs into Cy-COOH (HPLC),"[1]; 5 or 10 mM GSH, after 60 min",completely reduced into Cy-COOH
same,"amount of compound in the P-CyPt solution (HPLC, Fig. 2h)",[1]; [3],82.67
same,"amount of compound in the P-CyPt solution (HPLC, Fig. 2h)",[1]; [4],59.68
same,"amount of compound in the P-CyPt solution (HPLC, Fig. 2h)",[1]; [5],38.50
same,"amount of compound in the P-CyPt solution (HPLC, Fig. 2h)",[1]; [6],22.16
same,"amount of compound in the P-CyPt solution (HPLC, Fig. 2h)",[1]; [7],9.16
same,"amount of compound in the P-CyPt solution (HPLC, Fig. 2h)",[1]; [8],0.00
same,"amount of compound in the P-CyPt solution (HPLC, Fig. 2h)",ALP; 0 min,0.00
same,"amount of compound in the P-CyPt solution (HPLC, Fig. 2h)",ALP; 5 min,28.25
same,"amount of compound in the P-CyPt solution (HPLC, Fig. 2h)",ALP; 10 min,54.36
same,"amount of compound in the P-CyPt solution (HPLC, Fig. 2h)",ALP; 15 min,71.75
same,"amount of compound in the P-CyPt solution (HPLC, Fig. 2h)",ALP; 20 min,94.94
same,"amount of compound in the P-CyPt solution (HPLC, Fig. 2h)",ALP; 30 min,100.00
CC1(C)C(/C=C/C2=C3Oc4cc(OP(=O)(O)O)c(Cl)cc4C=C3CCC2)=[N+](CCCNC(=O)[C@@H](Cc2ccccc2)NC(=O)[C@@H](Cc2ccccc2)NC(=O)CCC(=O)[O][Pt]([NH2])([NH2])([OH])([Cl])[Cl])c2ccccc21 [P-CyPt],"Pt release (ICP-OES, Fig. 2h)",[1]; [3],19.98%
same,"amount of compound in the P-CyPt solution (HPLC, Fig. 2h)",[1]; [3],0
same,mean size by DLS (Fig. 2i),[1]; [3],133.97
same,mean size by TEM (Fig. 2i),[1]; [3],128.24
same,"Pt release (ICP-OES, Fig. 2h)",[1]; [4],42.65%
same,"amount of compound in the P-CyPt solution (HPLC, Fig. 2h)",[1]; [4],0
same,mean size by DLS (Fig. 2i),[1]; [4],96.71
same,mean size by TEM (Fig. 2i),[1]; [4],91.24
same,"Pt release (ICP-OES, Fig. 2h)",[1]; [5],64.34%
same,"amount of compound in the P-CyPt solution (HPLC, Fig. 2h)",[1]; [5],0
same,mean size by DLS (Fig. 2i),[1]; [5],62.38
same,mean size by TEM (Fig. 2i),[1]; [5],68.92
same,"Pt release (ICP-OES, Fig. 2h)",[1]; [6],80.43%
same,"amount of compound in the P-CyPt solution (HPLC, Fig. 2h)",[1]; [6],0
same,mean size by DLS (Fig. 2i),[1]; [6],35.90
same,mean size by TEM (Fig. 2i),[1]; [6],38.87
same,"Pt release (ICP-OES, Fig. 2h)",[1]; [7],95.70%
same,"amount of compound in the P-CyPt solution (HPLC, Fig. 2h)",[1]; [7],0
same,mean size by DLS (Fig. 2i),[1]; [7],14.84
same,mean size by TEM (Fig. 2i),[1]; [7],11.31
same,"Pt release (ICP-OES, Fig. 2h)",[1]; [8],99.63%
same,"amount of compound in the P-CyPt solution (HPLC, Fig. 2h)",[1]; [8],0
same,mean size by DLS (Fig. 2i),[1]; [8],0.00
same,mean size by TEM (Fig. 2i),[1]; [8],0.00
same,conversion of P-CyPt into CyPt on incubation with ALP (HPLC),"ALP; 100 U/L ALP, Tris buffer pH 8.0, after 30 min",completely converted into CyPt
same,"Pt release (ICP-OES, Fig. 2h)",ALP; 0 min,0%
same,"amount of compound in the P-CyPt solution (HPLC, Fig. 2h)",ALP; 0 min,100.00
same,mean size by DLS (Fig. 2i),ALP; 0 min,0.00
same,mean size by TEM (Fig. 2i),ALP; 0 min,0.00
same,"Pt release (ICP-OES, Fig. 2h)",ALP; 5 min,0%
same,"amount of compound in the P-CyPt solution (HPLC, Fig. 2h)",ALP; 5 min,72.64
same,mean size by DLS (Fig. 2i),ALP; 5 min,45.78
same,mean size by TEM (Fig. 2i),ALP; 5 min,54.14
same,"Pt release (ICP-OES, Fig. 2h)",ALP; 10 min,0%
same,"amount of compound in the P-CyPt solution (HPLC, Fig. 2h)",ALP; 10 min,46.65
same,mean size by DLS (Fig. 2i),ALP; 10 min,88.09
same,mean size by TEM (Fig. 2i),ALP; 10 min,87.54
same,"Pt release (ICP-OES, Fig. 2h)",ALP; 15 min,0%
same,"amount of compound in the P-CyPt solution (HPLC, Fig. 2h)",ALP; 15 min,28.27
same,mean size by DLS (Fig. 2i),ALP; 15 min,112.94
same,mean size by TEM (Fig. 2i),ALP; 15 min,105.56
same,"Pt release (ICP-OES, Fig. 2h)",ALP; 20 min,0%
same,"amount of compound in the P-CyPt solution (HPLC, Fig. 2h)",ALP; 20 min,6.15
same,mean size by DLS (Fig. 2i),ALP; 20 min,150.95
same,mean size by TEM (Fig. 2i),ALP; 20 min,121.94
same,"Pt release (ICP-OES, Fig. 2h)",ALP; 30 min,0%
same,"amount of compound in the P-CyPt solution (HPLC, Fig. 2h)",ALP; 30 min,1.54
same,mean size by DLS (Fig. 2i),ALP; 30 min,162.05
same,mean size by TEM (Fig. 2i),ALP; 30 min,152.65
same,tumor BL intensity of liver,[2]; [9],2725.3
same,tumor BL intensity of liver,[2]; day 6,3155.3
same,tumor BL intensity of liver,[2]; day 9,3616.5
same,tumor BL intensity of liver,[2]; day 12,6594.0
"[NH2][Pt]([NH2])([Cl])[Cl] [CDDP, cisplatin]",tumor BL intensity of liver,[2]; [9],88767.5
same,tumor BL intensity of liver,[2]; day 6,201697.5
same,tumor BL intensity of liver,[2]; day 9,375850.0
same,tumor BL intensity of liver,[2]; day 12,589375.0
